The results in this text go back to publication PMC8703611, “Cyclic Peptides from the Soft Coral-Derived Fungus Aspergillus sclerotiorum SCSIO 41031” (Marine Drugs, 2021).

For one data set, the target named is acetylcholinesterase (Homo sapiens, UniProt P22303). Briefly: AChE inhibition, modified Ellman's method. In kind it is biochemical. Here is the method: The AChE inhibition activity was measured based on the modified Ellman’s method. Tacrine was used as positive drug. The inhibition rates of AChE were calculated using Origin 8.0 software.
A short description of data set [1]: Cytotoxicity against HONE1, CCK-8 method. To be noted: CCK-8, OD at 450 nm, 72 h, average values of three parallel experiments. Format: cell-based, human. The procedure: (§1) The THP-1, HONE1, and HONE1-EBV cell lines were obtained from Sun Yat-sen University Cancer Center. The cytotoxic activity was determined by the CCK-8 (Dojindo) method. Briefly, THP-1, HONE1, and HONE1-EBV cells were cultured in DMEM media supplemented with 10% […] (FBS), respectively. The cells were seeded at a density of 400 to 800 cells/well in 384-well plates and then incubated with the compounds in a gradient concentration (50.0, 10.0, 2.0, 0.4, and 0.08 μM) or with a solvent control for 72 h, followed by the addition of CCK-8 reagent. The OD value of each well was measured at 450 nm using a SpectraMax M5 Microplate Reader (Molecular Devices). Sorafenib functioned as the positive control. Dose–response curves were plotted to determine IC50 based upon the average values of three parallel experiments using Prism 5.0.
For orientation: Tetrazolium assays rely on reduction of a dye to a coloured formazan, in cell work by metabolically active cells.

Data set [2] in a line: Cytotoxicity against HONE1-EBV, CCK-8 method. In kind it is cell-based, human. The settings on record: CCK-8, OD at 450 nm, 72 h, average values of three parallel experiments. Here is the method: as §1

Sequence of acetylcholinesterase (P22303 32-614): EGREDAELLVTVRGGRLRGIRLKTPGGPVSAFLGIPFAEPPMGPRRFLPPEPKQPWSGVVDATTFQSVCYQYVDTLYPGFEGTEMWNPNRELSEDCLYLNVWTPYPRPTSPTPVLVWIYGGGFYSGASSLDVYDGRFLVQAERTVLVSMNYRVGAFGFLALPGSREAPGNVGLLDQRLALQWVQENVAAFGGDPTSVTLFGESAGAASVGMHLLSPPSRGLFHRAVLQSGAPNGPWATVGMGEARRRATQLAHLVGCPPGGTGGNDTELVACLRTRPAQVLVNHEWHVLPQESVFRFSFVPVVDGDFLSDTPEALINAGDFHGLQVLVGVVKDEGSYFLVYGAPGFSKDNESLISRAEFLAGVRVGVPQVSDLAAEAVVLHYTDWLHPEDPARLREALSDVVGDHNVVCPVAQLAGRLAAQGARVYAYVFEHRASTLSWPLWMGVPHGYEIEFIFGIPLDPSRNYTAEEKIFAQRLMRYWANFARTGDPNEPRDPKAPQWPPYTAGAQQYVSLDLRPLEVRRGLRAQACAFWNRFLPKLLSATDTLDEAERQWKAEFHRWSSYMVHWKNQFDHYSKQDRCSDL

The IC50 is the concentration needed to halve the response being measured. For `CCCCCCCC[C@H](C)[C@@H]1CC(=O)NCC(=O)N[C@@H](C(C)C)C(=O)N[C@H](CC(C)C)C(=O)N[C@@H](C)C(=O)N[C@@H](C(C)C)C(=O)O1` [Compound 4, Scopularide I], the IC50 against acetylcholinesterase turned out to be 15.6 µM; in data set [1], 13 µM; in data set [2], 10.1 µM.
